Data on five compounds can be found in patent publication US7767696B2, “Pyrazole derivatives” (Merck Patent GmbH, priority 2005, dated 2010).

Each structure is given as a SMILES string.

One test has as its target TIE-2 (Homo sapiens, UniProt Q02763). Put plainly: TIE-2 kinase flashplate assay (phosphorylation of poly(Glu, Tyr) with 33P-ATP). In kind it is biochemical. Conditions: read-out: Kinase-Inhibiting Activities IC50 TIE-2. As to the method: The TIE-2 tests can be carried out, for example, analogously to the methods indicated in WO 02/44156.
The assay determines the inhibiting activity of the substances to be tested in the phosphorylation of the substrate poly(Glu, Tyr) by Tie-2 kinase in the presence of radioactive ^33P-ATP. The phosphorylated substrate binds to the surface of a “flashplate” microtitre plate during the incubation time. After removal of the reaction mixture, the microtitre plate is washed a number of times and the radioactivity on its surface is subsequently measured. An inhibiting effect of the substances to be measured results in lower radioactivity compared with an undisturbed enzymatic reaction.

The target of the next test is T1, VEGFR (KDR) (Homo sapiens, UniProt P35968).
T1 construct: cloning the cytoplasmic domain of the KDR kinase as an in frame fusion at the carboxyl terminus of the GST gene; made in house; host or cells: Spodoptera frugiperda (Sf21) insect cells, baculovirus vector pAcG2T
Put plainly: VEGF receptor kinase assay (33P incorporation into pEY substrate). Conditions: read-out: Kinase-Inhibiting Activities IC50 VEGFR. In kind it is biochemical. As to the method: VEGF receptor kinase activity is measured by incorporation of radiolabelled phosphate into 4:1 polyglutamic acid/tyrosine substrate (pEY). The phosphorylated pEY product is trapped on a filter membrane and the incorporation of radiolabelled phosphate is quantified by scintillation counting.
The intracellular tyrosine kinase domains of human KDR (Terman, B. I. et al. Oncogene (1991) Vol. 6, pp. 1677-1683.) and Flt-1 (Shibuya, M. et al. Oncogene (1990) Vol. 5, pp. 519-524) were cloned as glutathione S-transferase (GST) gene fusion proteins. This was accomplished by cloning the cytoplasmic domain of the KDR kinase as an in frame fusion at the carboxyl terminus of the GST gene. Soluble recombinant GST-kinase domain fusion proteins were expressed in Spodoptera frugiperda (Sf21) insect cells (Invitrogen) using a baculovirus expression vector (pAcG2T, Pharmingen).
Method B—VEGF Receptor Kinase Assay
1. Add 5 μl of inhibitor or control to the assay in 50% DMSO.
2. Add 35 μl of reaction mixture containing 5 μl of 10× reaction buffer, 5 μl of 25 mM ATP/10 μCi[^33P]ATP (Amersham) and 5 μl of 10× substrate.
3. Start the reaction by the addition of 10 μl of KDR (25 nM) in enzyme dilution buffer.
4. Mix and incubate at room temperature for 15 minutes.
5. Stop the reaction by the addition of 50 μl of stop solution.
6. Incubate at 4° C. for 15 minutes.
7. Transfer a 90 μl aliquot to filter plate.
8. Aspirate and wash 3 times with wash solution.
9. Add 30 μl of scintillation cocktail, seal plate and count in a Wallace Microbeta scintillation counter.

T1 sequence (P35968 786-1356 limits assumed): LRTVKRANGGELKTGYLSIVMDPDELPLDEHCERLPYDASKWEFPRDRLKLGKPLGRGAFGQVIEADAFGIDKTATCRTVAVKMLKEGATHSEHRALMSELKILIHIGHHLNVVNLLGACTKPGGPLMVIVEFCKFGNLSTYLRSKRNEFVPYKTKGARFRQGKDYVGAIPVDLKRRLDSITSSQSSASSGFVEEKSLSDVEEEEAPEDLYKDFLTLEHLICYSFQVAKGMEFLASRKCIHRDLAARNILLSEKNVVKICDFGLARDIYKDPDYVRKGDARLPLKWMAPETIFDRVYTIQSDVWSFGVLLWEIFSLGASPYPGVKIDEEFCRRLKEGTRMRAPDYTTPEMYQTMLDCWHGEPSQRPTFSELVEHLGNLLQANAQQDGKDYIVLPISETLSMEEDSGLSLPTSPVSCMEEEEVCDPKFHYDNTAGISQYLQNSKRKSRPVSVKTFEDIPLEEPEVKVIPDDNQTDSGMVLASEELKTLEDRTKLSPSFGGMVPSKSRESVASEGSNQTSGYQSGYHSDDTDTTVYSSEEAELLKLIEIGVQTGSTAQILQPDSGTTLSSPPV
Chain of TIE-2 (Q02763 23-1124, species assumed): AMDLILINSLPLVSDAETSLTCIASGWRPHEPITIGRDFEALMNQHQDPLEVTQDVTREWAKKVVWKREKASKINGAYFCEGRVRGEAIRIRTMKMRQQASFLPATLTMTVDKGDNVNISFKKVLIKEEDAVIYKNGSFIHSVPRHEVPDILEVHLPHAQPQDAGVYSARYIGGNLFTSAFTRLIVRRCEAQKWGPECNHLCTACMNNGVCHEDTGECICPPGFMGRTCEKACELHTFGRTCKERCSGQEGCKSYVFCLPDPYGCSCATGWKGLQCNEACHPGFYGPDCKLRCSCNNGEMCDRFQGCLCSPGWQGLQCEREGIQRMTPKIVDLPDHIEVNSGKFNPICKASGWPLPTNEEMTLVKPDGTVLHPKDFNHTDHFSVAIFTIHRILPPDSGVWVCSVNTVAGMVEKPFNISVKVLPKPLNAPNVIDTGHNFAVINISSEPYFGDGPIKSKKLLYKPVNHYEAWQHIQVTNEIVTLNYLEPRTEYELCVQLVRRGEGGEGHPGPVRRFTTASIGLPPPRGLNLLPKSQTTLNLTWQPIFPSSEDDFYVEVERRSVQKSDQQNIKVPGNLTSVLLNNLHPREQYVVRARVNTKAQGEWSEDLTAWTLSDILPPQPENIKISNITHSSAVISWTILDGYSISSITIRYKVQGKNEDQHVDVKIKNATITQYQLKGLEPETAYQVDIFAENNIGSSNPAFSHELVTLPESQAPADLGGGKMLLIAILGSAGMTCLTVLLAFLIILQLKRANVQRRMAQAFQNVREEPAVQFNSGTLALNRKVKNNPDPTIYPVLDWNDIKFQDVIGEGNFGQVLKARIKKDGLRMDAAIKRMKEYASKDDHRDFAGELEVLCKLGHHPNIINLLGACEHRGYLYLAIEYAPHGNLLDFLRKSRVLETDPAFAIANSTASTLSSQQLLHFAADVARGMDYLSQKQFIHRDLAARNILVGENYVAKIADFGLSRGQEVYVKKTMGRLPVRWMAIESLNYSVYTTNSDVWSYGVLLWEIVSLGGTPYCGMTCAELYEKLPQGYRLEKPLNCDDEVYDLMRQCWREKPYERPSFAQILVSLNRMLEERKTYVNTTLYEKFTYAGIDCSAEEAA

As a reminder, the IC50 is the midpoint of a concentration-inhibition curve. Regarding `CNC(=O)c1cc(Oc2ccc(NC(=O)Nc3cc(-c4ccco4)nn3-c3ccc(C)cc3)cc2)ccn1` [Compound 2, 1-[4-(2-methylaminocarbonylpyridin-4-yloxy)phenyl]-3-[5-(furan-2-yl)-2-(p-tolyl)-2H-pyrazol-3-yl]urea], the IC50 at TIE-2 is 4.3 nM; at VEGFR (KDR), 33.5 nM.

For the compound `CNC(=O)c1cc(Oc2ccc(NC(=O)Nc3cc(C(C)(C)C)nn3-c3cccc(C(F)(F)F)c3)cc2)ccn1` [Compound 11, 1-[4-(2-Methylaminocarbonylpyridin-4-yloxy)phenyl]-3-[5-tert-butyl-2-(3-trifluoromethylphenyl)-2H-pyrazol-3-yl]urea], the IC50 was found to be 3.2 nM at TIE-2 and 134 nM on VEGFR (KDR).

On to `CNC(=O)c1cc(Oc2ccc(NC(=O)Nc3cc(C(C)(C)C)nn3-c3ccc(C)cc3)cc2)ccn1` [Compound 8, 1-[4-(2-Methylaminocarbonylpyridin-4-yloxy)phenyl]-3-[5-tert-butyl-2-(p-tolyl)-2H-pyrazol-3-yl]urea], for which the IC50 is 7.2 nM at TIE-2 and 58 nM at VEGFR (KDR).

In the case of `CNC(=O)c1cc(Oc2ccc(NC(=O)Nc3cc(C(C)(C)C)nn3-c3ccc(F)cc3)cc2)ccn1` [Compound 1, 1-[4-(2-methylaminocarbonylpyridin-4-yloxy)phenyl]-3-[5-tert-butyl-2-(4-fluorophenyl)-2H-pyrazol-3-yl]urea], the IC50 on TIE-2 amounted to 6.5 nM; at VEGFR (KDR), 110 nM.

Turning to `CNC(=O)c1cc(Oc2ccc(NC(=O)Nc3cc(-c4ccco4)nn3-c3ccc(F)cc3)cc2)ccn1` [Compound 3, 1-[4-(2-Methylaminocarbonylpyridin-4-yloxy)phenyl]-3-[5-(furan-2-yl)-2-(4-fluorophenyl)-2H-pyrazol-3-yl]urea], the IC50 on TIE-2 worked out at 9.7 nM; on VEGFR (KDR), 74.8 nM.
